Laboratory results published in US20170198363A1, “COMPOSITIONS AND METHODS FOR DETECTION OF SMALL MOLECULES” (COLORADO STATE UNIVERSITY RESEARCH FOUNDATION, priority 2015, published 2017).
Numbering of substitutions follows the chain as printed.

Legend:
yeast = assay: Progesterone toxicity to yeast cells
degron-G-PRO1-V = molecular target: T1, degron-G-PRO1-V (Saccharomyces cerevisiae, UniProt P0CY08); assay: HIS3 reporter growth assay, strain PJ69-4a; assay type: cell-based, yeast; details: HIS3 reporter strain PJ69-4a
T1 construct: expressed in transfected cells; host or cells: S. cerevisiae strain PJ69-4a transformed with a p16C (p416CYC) plasmid

plant cells = assay: Progesterone toxicity to plant cells (protoplasts)
[1] = test system: plant biosensor (G-DIG1-V-Matα2); assay: Induction of the plant biosensor by steroids; assay type: in vivo, Arabidopsis thaliana; details: transgenic Arabidopsis
[2] = Progesterone biosensor luciferase assay in plant protoplasts; assay type: cell-based; details: 25 μM progesterone, L77F mutation in the Gal4 DBD
[3] = PRO0 binding of progesterone
[4] = cited from earlier work
[5] = cited from earlier work; remark: listed apart in the source

## CC(=O)[C@H]1CC[C@H]2[C@@H]3CCC4=CC(=O)CC[C@]4(C)[C@H]3CC[C@]12C [Progesterone, progesterone]
yeast
  level at which toxic, leading to substantial cell death: ≥ 100 µM
degron-G-PRO1-V
  stimulation of growth of degron-G-PRO1-V: stimulated
Plant cells
  concentration that seems to be toxic to the plant cells: 250 µM

## C[C@H]1O[C@@H](O[C@H]2[C@@H](O)C[C@H](O[C@H]3[C@@H](O)C[C@H](O[C@H]4CC[C@@]5(C)[C@H](CC[C@@H]6[C@@H]5C[C@@H](O)[C@]5(C)[C@@H](C7=CC(=O)OC7)CC[C@]65O)C4)O[C@@H]3C)O[C@@H]2C)C[C@H](O)[C@@H]1O [digoxin]
[1]
  induction of the plant biosensor: capable of inducing

B1: PRO2: progesterone binding sensor protein, SEQ ID NO:17, tested as TF-biosensor in plant protoplasts (protein)
chain: MNAKEIVVHSLRLLENGDARGWSDLFHPEGVLEFPYAPPGHKTRFEGRETIWAHMRLFPEYVTVRFTDVQFYETADPDLAIGEFHGDGVLTASGGMLAFDFIAVWRTRDGQILQYRVFYNPLRELEALGGVEAAAKIVQGAGSLE
[2]
  increase in luciferase expression over background levels: ~3 fold

B2: PRO0: progesterone binder from three rationally designed binding site mutations in DIG0; SEQ ID NO:13 (protein)
chain: B1 chain with M96K, Q114L, Y119F, E124V
[3]
  affinity for progesterone: nanomolar

B3: DIG10.3 (protein)
chain: B1 chain with F34Y, M96K, F99Y, F101Y, Q114L, Y119F, E124V
[4]
  affinity for digoxigenin: picomolar
[5]
  affinity for digoxin: picomolar
